Data: PMC6958329, “New ^55Co-labeled Albumin-Binding Folate Derivatives as Potential PET Agents for Folate Receptor Imaging” (Pharmaceuticals, 2019)
Values joined by “and” are separate entries in the source; they are usually repeats but may differ in a detail not shown here. Identical values can stand only once.

Columns and labels:
[1] = In vitro stability in PBS (radio-TLC); format: physicochemical; conditions: 37 °C, normalized to 0 h, n = 3
Experimental: Stability of the ^55Co-labeled folates was monitored over a period of 24 h in phosphate buffered saline (PBS) and mouse serum, to monitor the stability of a dose prior to injection (for potential shipment to a PET center) and match the longest biodistribution time point, respectively. The percentage of the intact complex was monitored at 1 h, 4 h, and 24 h via radio-TLC (PBS) or HPLC (mouse serum). […] In PBS, both radioconjugates retained 93% or greater stability at 24 h. […] As a control, one group of replicate serum tubes contained only [^55Co]CoCl2. […] Therefore, the peak corresponding to free [^55Co]CoCl2 (tR = 2.2 min) was used to determine the overall serum stability of the ^55Co-labeled chelates, which was approximately 95% for each compound at 24 h.
The ^55Co-labeled folate derivatives were diluted 10-fold in 10 mM PBS (pH = 7.4) or whole mouse serum (EMD Millipore, Burlington, MA) in 1.5 mL centrifuge tubes to final volumes of 100 μL. The tubes were incubated at 37 °C with vortexing at 900 rpm using an Eppendorf ThermoMixer C (Eppendorf, Hamburg, Germany) equipped with a 1.5 mL heating block. In the case of PBS stability, three replicate tubes were prepared with average final activity concentrations of 37 kBq (1 μCi) [^55Co]Co-cm10/μL or 37 kBq (1 μCi) [^55Co]Co-rf42/μL, and the final concentrations of precursor were 0.07 mM of cm10 or rf42. The percent of the intact complex was determined by analyzing 1 μL aliquots of each solution by radio-TLC at 1 h, 4 h and 24 h. For mouse serum stability, three replicate tubes were prepared for each time point for each complex. The final average activity concentrations were 11.1 kBq (0.3 μCi) [^55Co]Co-cm10/μL and 7.4 kBq (0.2 μCi) [^55Co]Co-rf42/μL and 0.02 mM final folate concentration. A control sample was prepared for each time point that contained an average of 10.4 kBq/μL of [^55Co]CoCl2. At each time point, 300 μL of ACN was added to each tube to precipitate serum proteins. The tubes were centrifuged at 4500 rpm for 5 min using a benchtop microcentrifuge (Eppendorf, Hamburg, Germany) and the supernatants collected. The pellets were washed once more, and the supernatants were collected and combined with the first ACN wash. The activities in the pellets and supernatants were determined using a 2480 Wizard2 Automatic Gamma Counter (Perkin Elmer, Waltham, MA, USA) to determine the amount of activity associated with the protein pellet. To determine the percentage of intact complex, the supernatant was diluted 2-fold with water, and 100 μL of this mixture was injected into the HPLC.

[2] = parameters: method as in PMID 18246556, doi:10.1016/S0277-5387(99)00369-1, doi:10.1351/pac200577081445; conditions: remaining carboxylic acid O of DOTA in the Co(II) complex; cited from earlier work

Compound	percent intact complex, PBS ([1]; 1 h) [%]	percent intact complex, PBS ([1]; 4 h) [%]	percent intact complex, PBS ([1]; 24 h)	pKa [2]
Nc1nc2ncc(CNc3ccc(C(=O)N[C@@H](CCC(=O)NC(CCCCNC(=O)CN4CCN(CC(=O)O)CCN(CC(=O)O)CCN(CC(=O)O)CC4)C(=O)NC(CCCCNC(=O)CCCc4ccc(I)cc4)C(=O)O)C(=O)O)cc3)nc2c(=O)[nH]1.[55Co] (stereo partly shown) [[^55Co]Co-cm10]	97 ± 2	95 ± 1	93% and 93.4 ± 0.3%	4.04
Nc1nc2ncc(CNc3ccc(C(=O)N[C@@H](CCC(=O)NC(CCCCNC(=O)CCC(C(=O)O)N4CCN(CC(=O)O)CCN(CC(=O)O)CC4)C(=O)NC(CCCCNC(=O)CCCc4ccc(I)cc4)C(=O)O)C(=O)O)cc3)nc2c(=O)[nH]1.[55Co] (stereo partly shown) [[^55Co]Co-rf42]	98 ± 2	95.6 ± 0.9	93% and 93 ± 3%	
